Test results taken from US8729034B2, “Pharmaceutical composition having virucidal and spermicidal activity” (priority 2007, dated 2014).
Like-named read-outs stand apart in the source and are kept apart here.

What was measured:
Type in all cases: cell-based
[1] = system: rat spermatozoa; experiment: Sander & Cramer spermicidal assay (in vitro)
Procedure: (§1) Sexually mature male mice and rats were autopsied following euthanasia by an overdose of Ketamin (≧200 mg/kg body weight; injected i.p.) and their cauda epididymis were excised. Working suspension of animal spermatozoa was prepared with the exudates obtained after careful pricking of the cauda epididymis with an injection needle (18 G) and the exudates were collected in a conical centrifuge tube.
(§2) The exudates/liquefied human semen samples were suspended in BWW medium (pre equilibrated at 37 degree C.). The spermatozoa with forward motility were separated from immotile or sluggishly motile cells by the swim-up technique and were allowed to disperse evenly within a CO2 incubator at 37 degree C. At least five aliquots from each sample was used to prepare the working spermatozoa suspension. The swim up procedure was as follows:
(§3) Pre equilibrated BWW medium (1.25 ml) was gently layered over cauda-exudates or liquefied human semen (1 ml) in a sterile 15 ml conical-based centrifuge tube. The tube was inclined at an angle of 45 degree and incubated for 1 hour at 37 degree C. in a CO2-incubator. It was then gently returned to the upright position and the uppermost 1 ml medium with a turbid appearance was removed. This aliquot of motile cells was pooled from each set, then diluted with same volumes of pre equilibrated BWW medium, centrifuged at 500 g for 5 minutes and finally resuspended in 1 ml pre equilibrated BWW medium to obtain a working suspension. The sperm cells were counted in a Makler chamber (Zygotec Systems, Springfield, M A, USA) and finally a working spermatozoa suspension having concentration of 25 to 30×10^6 cells/ml was prepared.
(§4) For in vitro assay of spermicidal effect, sperms collected from proven male rats and mice, and motile spermatozoa from liquefied human semen were used.
(§5) The assay was done following the Sander & Cramer assay method. Two hundred micro liter (200 microliters) of working spermatozoa suspension was added to 1 ml solution of test material in BWW medium and mixed on a light vortex for 10 seconds. A wet mount was immediately prepared on a clean microscopy glass slide and examined (at ×100) under a phase contrast microscope (Leitz, Biomed). The weakest concentration that immobilized all spermatozoa within 20 seconds of mixing was recorded as MEC. At least five fields were examined for each wet mount preparation. The observation was repeated with five individual spermatozoa suspension for each concentration of test compound solution. For negative control, saponin solutions were replaced by equal volume of BWW medium, while Nonoxynol 9 was used as positive control.

[2] = system: mouse spermatozoa; experiment: Sander & Cramer spermicidal assay (in vitro)
Procedure: as §1, §2, §3, §4, §5

[3] = system: HIV-1 NL-4.3 virus; details: for Percentage inhibition of hiv growth in CEM-GFP T cell line, Without Pretreatment: untreated virus
Procedure: Human CD4+ T cell line CEM-GFP cells were infected with HIV-1 NL-4.3 virus pretreated without or with Ac-B at varying concentrations (1 hour at 37 degree C.) at a multiplicity of infection (MOI) of 0.01. The cells were then cultured in the presence or absence of Ac-B for up to 7 days post infection. Virus production was analyzed in the culture supernatant on day-7 post infection by p24 antigen capture ELISA

[4] = system: human sperm; experiment: Live/dead staining (SYBR-14 / propidium iodide) of treated sperm
Procedure: Live/dead staining kit (Invitrogen: Paisley, UK), using SYBR-14 in combination with propidium iodide (PI) was used for the purpose.
The SYBR-14 was prepared in anhydrous methyl sulfoxide (DMSO) at a concentration of 1 mg/ml. A working solution of SYBR-14 diluted 1:10 with DMSO was used for staining the sperm. The PI was dissolved in Tyrode's salt solution at 2 mg/ml.
The human sperm samples, pre-treated without (control) or with Ac-B (experimental) and Nonoxynol 9 (positive control) were incubated for 15 min at 36 degree C. before examination. […] The fluorescent staining of sperm was monitored and photographed with a Zeiss Axiophot epifluorescent microscope (Carl Zeiss Inc., Thornwood, N.Y.) equipped with a fluorescein isothiocyanate filter set (Zeiss #487909).
Viability of Ac-B-treated human spermatozoa was evaluated using a dual fluorescent live/dead staining kit (Invitrogen; Paisley, UK) consisting of SYBR 14 and propidium iodide (PI). PI cannot penetrate living cells but can bind to and stain cellular DNA in damaged cells giving them red fluorescence. On completion of staining reaction, proportionate distribution of green (live) and red (dead) stained spermatozoa was recorded using dual emission filter for SYBR14 and propidium iodide. In the control set all sperms were stained green but the Ac-B-treated spermatozoa (125 mcg/ml) were stained red.

Acaciaside-B [Ac-B]
MEC as per Sander and Cramer Test ([1]; Rat spermatozoa (N = 10), all immobilized within 20 seconds): 60 (±2) microgram per ml | MEC, Sander-Cramer test ([1]; rats): 60 µg/mL | MEC as per Sander and Cramer Test ([2]; Mouse spermatozoa (N = 10), all immobilized within 20 seconds): 60 (±2) microgram per ml | MEC, Sander-Cramer test ([2]; mice): 60 µg/mL | Percentage inhibition of hiv growth in CEM-GFP T cell line, Without Pretreatment ([3]; Ac-B 0.1 microgram per ml, day-7 p24): 0% | Percentage inhibition of hiv growth in CEM-GFP T cell line, Pretreatment with Ac-B ([3]; Ac-B 0.1 microgram per ml, virus pretreated 1 hour at 37 degree C, day-7 p24): 70.5% | Percentage inhibition of hiv growth in CEM-GFP T cell line, Without Pretreatment ([3]; Ac-B 0.2 microgram per ml): 0% | Percentage inhibition of hiv growth in CEM-GFP T cell line, Pretreatment with Ac-B ([3]; Ac-B 0.2 microgram per ml, virus pretreated): 77.8% | Percentage inhibition of hiv growth in CEM-GFP T cell line, Without Pretreatment ([3]; Ac-B 0.25 microgram per ml): 0% | Percentage inhibition of hiv growth in CEM-GFP T cell line, Pretreatment with Ac-B ([3]; Ac-B 0.25 microgram per ml, virus pretreated): 92% | Percentage inhibition of hiv growth in CEM-GFP T cell line, Without Pretreatment ([3]; Ac-B 0.5 microgram per ml): 36.1% | Percentage inhibition of hiv growth in CEM-GFP T cell line, Pretreatment with Ac-B ([3]; Ac-B 0.5 microgram per ml, virus pretreated): 90.6% | Percentage inhibition of hiv growth in CEM-GFP T cell line, Without Pretreatment ([3]; Ac-B 1 microgram per ml): 60.5% | Percentage inhibition of hiv growth in CEM-GFP T cell line, Pretreatment with Ac-B ([3]; Ac-B 1 microgram per ml, virus pretreated): 99.73% | Percentage inhibition of hiv growth in CEM-GFP T cell line, Without Pretreatment ([3]; Ac-B 1.5 microgram per ml): 100% | Percentage inhibition of hiv growth in CEM-GFP T cell line, Pretreatment with Ac-B ([3]; Ac-B 1.5 microgram per ml, virus pretreated): 100% | Percentage inhibition of hiv growth in CEM-GFP T cell line, Without Pretreatment ([3]; Ac-B 2 microgram per ml): 100% | Percentage inhibition of hiv growth in CEM-GFP T cell line, Pretreatment with Ac-B ([3]; Ac-B 2 microgram per ml, virus pretreated): 100% | Percentage inhibition of hiv growth in CEM-GFP T cell line, Without Pretreatment ([3]; Ac-B 2.5 microgram per ml): 100% | Percentage inhibition of hiv growth in CEM-GFP T cell line, Pretreatment with Ac-B ([3]; Ac-B 2.5 microgram per ml, virus pretreated): 100% | Inhibition of viral transmission, untreated virus ([3]; cells infected with untreated virus, cultured in the presence of Ac-B 0.1 to 2.5 microgram per ml): only partial inhibition | Live/dead staining colour of treated spermatozoa ([4]; Ac-B 125 mcg/ml, green = live, red = dead): stained red | Percentage of dead spermatozoa, Live/dead staining ([4]; human sperm pre-treated with Ac-B): 92 (±5)%
